Source: patent publication US20220259193A1, “KCNT1 INHIBITORS AND METHODS OF USE” (Praxis Precision Medicines, Inc., priority 2019, published 2022)

Target: T1, KCNT1 (KNa1.1, Slack) (Homo sapiens, UniProt Q5JUK3)
T1 construct: expressed in transfected cells; host or cells: HEK-TREX (tetracycline-inducible HEK cell line)
T1 sequence (Q5JUK3 1-1230): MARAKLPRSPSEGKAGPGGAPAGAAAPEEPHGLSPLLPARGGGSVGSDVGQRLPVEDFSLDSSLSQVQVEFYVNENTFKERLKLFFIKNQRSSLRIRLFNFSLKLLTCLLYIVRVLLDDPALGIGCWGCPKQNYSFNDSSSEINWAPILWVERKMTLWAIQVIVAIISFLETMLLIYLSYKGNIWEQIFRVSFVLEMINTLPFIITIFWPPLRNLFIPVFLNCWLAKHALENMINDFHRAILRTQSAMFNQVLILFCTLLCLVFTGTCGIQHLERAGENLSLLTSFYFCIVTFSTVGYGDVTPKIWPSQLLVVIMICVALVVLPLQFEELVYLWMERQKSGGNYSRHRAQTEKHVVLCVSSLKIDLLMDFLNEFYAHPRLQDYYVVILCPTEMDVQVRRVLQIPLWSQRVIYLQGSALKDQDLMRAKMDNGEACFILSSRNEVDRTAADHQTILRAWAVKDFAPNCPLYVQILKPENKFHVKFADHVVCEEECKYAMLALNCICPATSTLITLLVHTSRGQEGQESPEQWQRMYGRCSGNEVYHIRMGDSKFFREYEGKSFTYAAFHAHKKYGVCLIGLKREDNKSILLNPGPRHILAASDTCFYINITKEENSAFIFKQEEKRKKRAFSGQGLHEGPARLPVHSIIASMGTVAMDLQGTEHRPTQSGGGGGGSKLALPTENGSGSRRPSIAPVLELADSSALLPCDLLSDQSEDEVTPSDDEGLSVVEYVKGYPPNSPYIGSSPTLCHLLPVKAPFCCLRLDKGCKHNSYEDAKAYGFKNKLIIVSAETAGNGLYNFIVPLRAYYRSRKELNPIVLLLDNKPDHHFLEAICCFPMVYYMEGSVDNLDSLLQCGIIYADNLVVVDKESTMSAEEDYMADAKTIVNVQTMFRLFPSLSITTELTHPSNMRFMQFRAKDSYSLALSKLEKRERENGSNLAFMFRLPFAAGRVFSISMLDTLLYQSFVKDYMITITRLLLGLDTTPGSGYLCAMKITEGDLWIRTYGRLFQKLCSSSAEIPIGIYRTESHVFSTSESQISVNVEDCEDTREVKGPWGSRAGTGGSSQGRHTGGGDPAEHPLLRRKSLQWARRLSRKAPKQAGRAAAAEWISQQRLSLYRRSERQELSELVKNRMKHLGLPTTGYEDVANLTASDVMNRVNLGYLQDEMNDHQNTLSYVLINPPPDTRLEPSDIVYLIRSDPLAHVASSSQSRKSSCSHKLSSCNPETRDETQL
Test: KCNT1 patch clamp assay (SyncroPatch 384PE automated patch clamp)
Assay type: cell-based
Details: tetracycline inducible HEK-TREX cell line; perforated patch; step from −80 mV to 0 mV; room temperature; read-out: KCNT1-WT IC50
Description: KCNT1—Patch Clamp Assay Inhibition of KCNT1 (KNa1.1, Slack) was evaluated using a tetracycline inducible cell line (HEK-TREX). Currents were recorded using the SyncroPatch 384PE automated, patch clamp system. Pulse generation and data collection were performed with PatchController384 V1.3.0 and DataController384 V1.2.1 (Nanion Technologies). The access resistance and apparent membrane capacitance were estimated using built-in protocols. Current were recorded in perforated patch mode (10 μM escin) from a population of cells. […] The cells were allowed to recover in the cell hotel prior to experimentation. Currents were recorded at room temperature. […] The extracellular solution was used as the wash, reference and compound delivery solution. […] Escin is made at a 5 mM stock in water, aliquoted, and stored at −20° C. The compound plate was created at 2× concentrated in the extracellular solution. The compound was diluted to 1:2 when added to the recording well. The amount of DMSO in the extracellular solution was held constant at the level used for the highest tested concentration. A holding potential of −80 mV with a 100 ms step to 0 mV was used. […] The average mean current from 3 sweeps was calculated and the % inhibition of each compound was calculated. The % Inhibition as a function of the compound concentration was fit with a Hill equation to derive IC50, slope, min and max parameters.

IC50 | SMILES
≤ 1000 nM | CC[C@H](NC(=O)c1cc(C(F)(F)F)nn1CC(F)F)c1nc(-c2cccc(F)c2)no1 [Compound 111]
≤ 1000 nM | CC[C@H](NC(=O)c1cc(C(F)(F)F)nn1C(F)F)c1nc(-c2cccc(F)c2)no1 [Compound 112]
1000 to 20000 nM | Cn1nc(C(F)(F)F)cc1C(=O)NC1(c2nc(-c3cccc(F)c3)no2)CCOCC1 [Compound 118]
≤ 1000 nM | CC[C@H](NC(=O)c1cc(C(F)F)nn1C)c1nc(-c2cccc(F)c2)no1 [Compound 120]
≥ 20000 nM | Cn1nc(C(F)(F)F)cc1C(=O)N[C@H](CC(=O)NCCO)c1nc(-c2cccc(F)c2)no1 [Compound 122]
≥ 20000 nM | Cn1nc(C(F)(F)F)cc1C(=O)NC(CC(=O)N1CC(O)C1)c1nc(-c2cccc(F)c2)no1 (stereo not drawn) [Compound 124]
≤ 1000 nM | C[C@H](NC(=O)c1cc(C(F)F)nn1C(F)F)c1nc(-c2cccc(F)c2)no1 [Compound 130]
≤ 1000 nM | CO[C@@H](C)[C@@H](NC(=O)c1cc(C(F)(F)F)nn1C)c1nc(-c2cccc(F)c2)no1 [Compound 138]
1000 to 20000 nM | Cn1nc(C(F)(F)F)cc1C(=O)NC(c1nc(-c2cccc(F)c2)no1)C1COC1 (stereo not drawn) [Compound 147]
1000 to 20000 nM | Cn1nc(C(F)(F)F)cc1C(=O)NC1(c2nc(-c3cccc(F)c3)no2)CCOC1 (stereo not drawn) [Compound 148]
≤ 1000 nM | Cn1nc(C(F)(F)F)cc1C(=O)NC1(c2nc(-c3cccc(F)c3)no2)CCOC1 (stereo not drawn) [Compound 149]
≤ 1000 nM | Cc1nn(C(C)(C)C)cc1C(=O)N[C@@H](C)c1nc(-c2cccc(F)c2)no1 [Compound 150]
1000 to 20000 nM | Cc1nn(C2CCOCC2)cc1C(=O)N[C@@H](C)c1nc(-c2cccc(F)c2)no1 [Compound 152]
1000 to 20000 nM | C[C@H](NC(=O)c1cn(C)nc1C1CCC1)c1nc(-c2cccc(F)c2)no1 [Compound 155]
1000 to 20000 nM | Cn1nc(C(F)(F)F)cc1C(=O)NC(CNC(=O)OCc1ccccc1)c1nc(-c2cccc(F)c2)no1 (stereo not drawn) [Compound 157, benzyl N-[2-[3-(3-fluorophenyl)-1,2,4-oxadiazol-5-yl]-2-[[2-methyl-5-(trifluoromethyl)pyrazole-3-carbonyl]amino]ethyl]carbamate]
1000 to 20000 nM | C[C@H](NC(=O)c1cn(C)nc1C(F)(F)F)c1nc(-c2cccc(F)c2)no1 [Compound 160]
1000 to 20000 nM | C[C@H](NC(=O)c1cn(C)nc1C(C)(C)C)c1nc(-c2cccc(F)c2)no1 [Compound 162]
1000 to 20000 nM | Cc1nn(CC(F)F)cc1C(=O)N[C@@H](C)c1nc(-c2cccc(F)c2)no1 [Compound 163]
≤ 1000 nM | CCn1cc(C(=O)N[C@@H](C)c2nc(-c3cccc(F)c3)no2)c(C(F)(F)F)n1 [Compound 165]
1000 to 20000 nM | Cn1nc(C(F)(F)F)cc1C(=O)NC(CN)c1nc(-c2cccc(F)c2)no1 (stereo not drawn) [Compound 167, N-[2-amino-1-[3-(3-fluorophenyl)-1,2,4-oxadiazol-5-yl]ethyl]-2-methyl-5-(trifluoromethyl)pyrazole-3-carboxamide]
1000 to 20000 nM | COC(=O)NCC(NC(=O)c1cc(C(F)(F)F)nn1C)c1nc(-c2cccc(F)c2)no1 (stereo not drawn) [Compound 168]
≤ 1000 nM | COCCC(NC(=O)c1cc(C(F)(F)F)nn1C)c1nc(-c2cccc(F)c2)no1 (stereo not drawn) [Compound 170]
1000 to 20000 nM | CC(NC(=O)c1cc(C(F)(F)F)nn1C)c1nc(-c2cccc(CO)c2)no1 (stereo not drawn) [Compound 176, N-(1-(3-(3-(hydroxymethyl)phenyl)-1,2,4-oxadiazol-5-yl)ethyl)-1-methyl-3-(trifluoromethyl)-1H-pyrazole-5-carboxamide]
1000 to 20000 nM | CC(NC(=O)c1cc(C(F)(F)F)nn1C)c1nc(-c2cccc(CC#N)c2)no1 (stereo not drawn) [Compound 178, N-(1-(3-(3-(cyanomethyl)phenyl)-1,2,4-oxadiazol-5-yl)ethyl)-1-methyl-3-(trifluoromethyl)-1H-pyrazole-5-carboxamide]

Continued, molecule first:

SMILES | IC50
CC[C@H](NC(=O)c1cc(C(F)(F)F)nn1C)c1nc(-c2cccc(F)c2)no1 [Compound 105] | ≤ 1000 nM
CC[C@H](NC(=O)c1cc(C(F)(F)F)nn1C1CC1)c1nc(-c2cccc(F)c2)no1 [Compound 113] | ≤ 1000 nM
Cn1nc(C(F)(F)F)cc1C(=O)NC1(c2nc(-c3cccc(F)c3)no2)COC1 [Compound 119] | ≤ 1000 nM
Cn1nc(C(F)(F)F)cc1C(=O)NC(CC(=O)N1CC(O)C1)c1nc(-c2cccc(F)c2)no1 (stereo not drawn) [Compound 123] | ≥ 20000 nM
C[C@H](NC(=O)c1cc(C(F)(F)F)nn1C(F)F)c1nc(-c2cccc(F)c2)no1 [Compound 127] | ≤ 1000 nM
CO[C@H](C)[C@H](NC(=O)c1cc(C(F)(F)F)nn1C)c1nc(-c2cccc(F)c2)no1 [Compound 131] | 1000 to 20000 nM
C[C@H](NC(=O)c1cc(C(F)F)nn1C1CC1)c1nc(-c2cccc(F)c2)no1 [Compound 132] | ≤ 1000 nM
CC(NC(=O)c1c2c(nn1C)CCCC2)c1nc(-c2cccc(F)c2)no1 (stereo not drawn) [Compound 133] | 1000 to 20000 nM
CC(=O)NC[C@H](NC(=O)c1cc(C(F)(F)F)nn1C)c1nc(-c2cccc(F)c2)no1 [Compound 134] | ≥ 20000 nM
CC(=O)NC[C@@H](NC(=O)c1cc(C(F)(F)F)nn1C)c1nc(-c2cccc(F)c2)no1 [Compound 137] | 1000 to 20000 nM
CO[C@H](C)[C@@H](NC(=O)c1cc(C(F)(F)F)nn1C)c1nc(-c2cccc(F)c2)no1 [Compound 139] | ≤ 1000 nM
Cn1nc(C(F)(F)F)cc1C(=O)NC(CC#N)c1nc(-c2cccc(F)c2)no1 (stereo not drawn) [Compound 140] | 1000 to 20000 nM
Cn1nc(C(F)(F)F)cc1C(=O)NC(CC#N)c1nc(-c2cccc(F)c2)no1 (stereo not drawn) [Compound 141] | 1000 to 20000 nM
CO[C@@H](C)[C@H](NC(=O)c1cc(C(F)(F)F)nn1C)c1nc(-c2cccc(F)c2)no1 [Compound 142] | 1000 to 20000 nM
C[C@H](NC(=O)c1cn(CC(F)(F)F)nc1C1CC1)c1nc(-c2cccc(F)c2)no1 [Compound 151] | 1000 to 20000 nM
Cc1nn(C(C)C)cc1C(=O)N[C@@H](C)c1nc(-c2cccc(F)c2)no1 [Compound 153] | ≤ 1000 nM
Cc1nn(-c2ccc(F)cc2)cc1C(=O)N[C@@H](C)c1nc(-c2cccc(F)c2)no1 [Compound 154] | ≤ 1000 nM
COCc1nn(C)cc1C(=O)N[C@@H](C)c1nc(-c2cccc(F)c2)no1 [Compound 156] | ≥ 20000 nM
Cc1nn(C2CC2)cc1C(=O)N[C@@H](C)c1nc(-c2cccc(F)c2)no1 [Compound 161] | 1000 to 20000 nM
Cc1nn(CC(F)(F)F)cc1C(=O)N[C@@H](C)c1nc(-c2cccc(F)c2)no1 [Compound 164] | 1000 to 20000 nM
C[C@H](NC(=O)c1cn(C)nc1C1CCOCC1)c1nc(-c2cccc(F)c2)no1 [Compound 166] | 1000 to 20000 nM
Cn1nc(C(F)(F)F)cc1C(=O)NC(CNS(C)(=O)=O)c1nc(-c2cccc(F)c2)no1 (stereo not drawn) [Compound 169] | 1000 to 20000 nM
Cn1nc(C(F)(F)F)cc1C(=O)NC(CS(C)(=O)=O)c1nc(-c2cccc(F)c2)no1 (stereo not drawn) [Compound 171] | 1000 to 20000 nM
CC(c1nc(-c2cccc(CO)c2)no1)N(C)C(=O)c1cc(C(F)(F)F)nn1C (stereo not drawn) [Compound 177, N-(1-(3-(3-(hydroxymethyl)phenyl)-1,2,4-oxadiazol-5-yl)ethyl)-N,1-dimethyl-3-(trifluoromethyl)-1H-pyrazole-5-carboxamide] | ≥ 20000 nM
